These molecules were tested against T1, human ALK5 (Homo sapiens, UniProt P36897) (assay: ALK5 Enzyme Assay 2 (fluorescence polarisation probe displacement)). Settings: read-out: EAA2: activity (μM) using Enzyme Assay 2.
T1 sequence (P36897 162-503): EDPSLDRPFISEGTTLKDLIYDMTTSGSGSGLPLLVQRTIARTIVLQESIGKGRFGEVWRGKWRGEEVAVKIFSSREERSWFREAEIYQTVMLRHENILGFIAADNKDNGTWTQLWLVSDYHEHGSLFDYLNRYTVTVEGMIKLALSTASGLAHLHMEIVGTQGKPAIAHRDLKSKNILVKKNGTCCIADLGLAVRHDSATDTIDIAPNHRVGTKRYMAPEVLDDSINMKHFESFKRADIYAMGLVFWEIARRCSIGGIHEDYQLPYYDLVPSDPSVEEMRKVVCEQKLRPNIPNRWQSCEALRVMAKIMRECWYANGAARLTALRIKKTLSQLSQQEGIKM
Format: binding
Set-up: 6His tagged human ALK5 (residues162-503) was grown and purified from insect cells; 6His; made in house; host or cells: insect cells
Method: The ability of a compound to bind and inhibit ALK5 can be measured by its capacity to displace a probe molecule from recombinant ALK5 in an in vitro assay. Provided the probe molecule is derivatised with a fluorescent probe or is fluorescent itself, the binding affinity can be measured using Fluorescence Polarisation (FP). […] Assay measurements were performed in 50 mM HEPES pH7.4, 10 mM MgCl2, 1 mM DTT, 0.01% CHAPS in a final assay volume of 12 μl. Briefly 6 μl of ALK5 protein, final concentration of 3 μg/mL, was added to each well of a 384 well assay plate containing 12 nL of each concentration of test compound dissolved in DMSO. 6 μL of a solution containing an ALK5 FP probe ((2Z)-3-(6-{4-[2-({4-[(6-chloro[1,3]dioxolo[4,5-b]pyridin-7-yl)amino]-5-(1-methylethoxy)quinazolin-7-yl}oxy)ethyl]piperazin-1-yl}-6-oxohexyl)-2-[(2E,4E)-5-(3-ethyl-1,1-dimethyl-6,8-disulfo-1H-benzo[e]indolium-2-yl)penta-2,4-dien-1-ylidene]-1,1-dimethyl-6-sulfo-2,3-dihydro-1H-benzo[e]indole-8-sulfonate), final concentration 50 nM, and ATP, final concentration 1 μM.

| IC50 | SMILES |
| --- | --- |
| 0.0189 µM | Cc1ccc(Oc2ccnc(Nc3ccc(C(=O)NC4CCN(C)CC4)cc3)c2)c(C)n1 [Example 130, 4-[4-(2,6-Dimethylpyridin-3-yloxy)pyridin-2-ylamino]-N-(1-methylpiperidin-4-yl)benzamide] |
| 0.0932 µM | Cc1ccc(Oc2ccnc(Nc3ccc(S(=O)(=O)NCCN4CCN(C)CC4)cc3)c2)c(C)n1 [Example 133, 4-{[4-(2,6-Dimethylpyridin-3-yl)oxypyridin-2-yl]amino}-N-[2-(4-methylpiperazin-1-yl)ethyl]benzenesulfonamide] |
| 0.163 µM | Cc1ccc(Oc2ccnc(Nc3ccc(S(=O)(=O)NCCN4CC[C@H](F)C4)cc3)c2)c(C)n1 [Example 137] |
| 0.0208 µM | Cc1ccc(Oc2ccnc(Nc3ccc(C(=O)NCCn4cccn4)cc3)c2)c(C)n1 [Example 140, 4-{[4-(2,6-Dimethylpyridin-3-yl)oxypyridin-2-yl]amino}-N-(2-pyrazol-1-ylethyl)benzamide] |
| 0.0693 µM | Cc1ccc(Oc2ccnc(Nc3ccc(C(=O)NCCN4CCCC4=O)cc3)c2)c(C)n1 [Example 141, 4-{[4-(2,6-dimethylpyridin-3-yl)oxypyridin-2-yl]amino}-N-[2-(2-oxopyrrolidin-1-yl)ethyl]benzamide] |
| 0.0506 µM | Cc1ccc(Oc2ccnc(Nc3ccc(C(=O)NCCNS(=O)(=O)N(C)C)cc3)c2)c(C)n1 [Example 142, 4-{[4-(2,6-Dimethylpyridin-3-yl)oxypyridin-2-yl]amino}-N-[2-(dimethylsulfamoylamino)ethyl]benzamide] |

Continued, molecule first:

| SMILES | IC50 |
| --- | --- |
| Cc1ccc(Oc2ccnc(Nc3ccc(S(=O)(=O)NCCN4CCOCC4)cc3)c2)c(C)n1 [Example 131, 4-[4-(2,6-Dimethylpyridin-3-yloxy)pyridin-2-ylamino]-N-(2-morpholinoethyl)benzenesulfonamide] | 0.256 µM |
| Cc1ccc(Oc2ccnc(Nc3ccc(S(=O)(=O)NCCN4CCS(=O)(=O)CC4)cc3)c2)c(C)n1 [Example 132, 4-{[4-(2,6-Dimethylpyridin-3-yl)oxypyridin-2-yl]amino}-N-[2-(1,1-dioxo-1,4-thiazinan-4-yl)ethyl]benzenesulfonamide] | 0.142 µM |
| Cc1ccc(Oc2ccnc(Nc3ccc(S(=O)(=O)NCCN4CCCCC4)cc3)c2)c(C)n1 [Example 134, 4-{[4-(2,6-Dimethylpyridin-3-yl)oxypyridin-2-yl]amino}-N-(2-piperidin-1-ylethyl)benzenesulfonamide] | 0.199 µM |
| Cc1ccc(Oc2ccnc(Nc3ccc(S(=O)(=O)NCCn4ccnc4)cc3)c2)c(C)n1 [Example 135, 4-{[4-(2,6-Dimethylpyridin-3-yl)oxypyridin-2-yl]amino}-N-(2-imidazol-1-ylethyl)benzenesulfonamide] | 0.12 µM |
| Cc1ccc(Oc2ccnc(Nc3ccc(S(=O)(=O)NCCn4cccn4)cc3)c2)c(C)n1 [Example 136, 4-{[4-(2,6-Dimethylpyridin-3-yl)oxypyridin-2-yl]amino}-N-(2-pyrazol-1-ylethyl)benzenesulfonamide] | 0.101 µM |
| Cc1ccc(Oc2ccnc(Nc3ccc(CC#N)cc3)c2)c(-c2ccccn2)n1 [Example 144, 2-(4-{[4-(6-Methyl-2-pyridin-2-ylpyridin-3-yl)oxypyridin-2-yl]-amino}phenyl)acetonitrile] | 0.0276 µM |
| Cc1ccc(Oc2ccnc(Nc3ccccn3)c2)c(-c2ccccn2)n1 [Example 145, 4-(6-Methyl-2-pyridin-2-ylpyridin-3-yl)oxy-N-pyridin-2-yl-pyridin-2-amine] | 0.00825 µM |
| Cc1ccc(Oc2ccnc(Nc3ccc(C(N)=O)cc3)c2)c(-c2ccccn2)n1 [Example 146, 4-{[4-(6-Methyl-2-pyridin-2-ylpyridin-3-yl)oxypyridin-2-yl]-amino}benzamide] | 0.0152 µM |
| Cc1ccc(Oc2ccnc(Nc3ccc(CO)cc3)c2)c(-c2ccccn2)n1 [Example 147, (4-{[4-(6-Methyl-2-pyridin-2-ylpyridin-3-yl)oxypyridin-2-yl]-amino}phenyl)methanol] | 0.00921 µM |
